IC50 and Ki data for eight compounds are collected here from BindingDB's records for patent US11859014 (Emory University, 2024).

Experiment [1] concerns the target Genome polyprotein (Hu/NV/NV/1968/US, UniProt Q83883). The experiment is described as follows: Fret Assay. The method, then: (§1) The ability of these compounds to inhibit the NoV, specifically Minerva virus protease catalytic Cys139 covalently (IC50 and Ki) was determined with an enzyme kinetic assay. NoV strains, specifically GII.4 such as the Minerva virus are responsible for causing the majority (80%) of infections in humans. The activity of the inhibitors was evaluated by monitoring the cleavage of a FRET substrate every one minute for 20 minutes (excitation/emission: 488/520 nm) using a SpectraMax M5 microplate reader (Molecular Devices, Sunnyvale CA). Serial dilutions of each inhibitor were incubated with enzyme for 90 minutes at 37° C. before addition of the FRET substrate to ensure complete inactivation. Commercially available protease inhibitors chymostatin and rupintrivir were used as controls.

The target of experiment [2] is Genome polyprotein (Norovirus Hu/GII.P4_GII.4/Minerva/2006/USA, UniProt A0A0K2E2J2). The experiment is described as follows: Fret Assay. Here is the method: as §1
Genome polyprotein (Norovirus Hu/GII.P4_GII.4/Minerva/2006/USA, UniProt A0A0K2E2J2), sequence (A0A0K2E2J2 whole entry): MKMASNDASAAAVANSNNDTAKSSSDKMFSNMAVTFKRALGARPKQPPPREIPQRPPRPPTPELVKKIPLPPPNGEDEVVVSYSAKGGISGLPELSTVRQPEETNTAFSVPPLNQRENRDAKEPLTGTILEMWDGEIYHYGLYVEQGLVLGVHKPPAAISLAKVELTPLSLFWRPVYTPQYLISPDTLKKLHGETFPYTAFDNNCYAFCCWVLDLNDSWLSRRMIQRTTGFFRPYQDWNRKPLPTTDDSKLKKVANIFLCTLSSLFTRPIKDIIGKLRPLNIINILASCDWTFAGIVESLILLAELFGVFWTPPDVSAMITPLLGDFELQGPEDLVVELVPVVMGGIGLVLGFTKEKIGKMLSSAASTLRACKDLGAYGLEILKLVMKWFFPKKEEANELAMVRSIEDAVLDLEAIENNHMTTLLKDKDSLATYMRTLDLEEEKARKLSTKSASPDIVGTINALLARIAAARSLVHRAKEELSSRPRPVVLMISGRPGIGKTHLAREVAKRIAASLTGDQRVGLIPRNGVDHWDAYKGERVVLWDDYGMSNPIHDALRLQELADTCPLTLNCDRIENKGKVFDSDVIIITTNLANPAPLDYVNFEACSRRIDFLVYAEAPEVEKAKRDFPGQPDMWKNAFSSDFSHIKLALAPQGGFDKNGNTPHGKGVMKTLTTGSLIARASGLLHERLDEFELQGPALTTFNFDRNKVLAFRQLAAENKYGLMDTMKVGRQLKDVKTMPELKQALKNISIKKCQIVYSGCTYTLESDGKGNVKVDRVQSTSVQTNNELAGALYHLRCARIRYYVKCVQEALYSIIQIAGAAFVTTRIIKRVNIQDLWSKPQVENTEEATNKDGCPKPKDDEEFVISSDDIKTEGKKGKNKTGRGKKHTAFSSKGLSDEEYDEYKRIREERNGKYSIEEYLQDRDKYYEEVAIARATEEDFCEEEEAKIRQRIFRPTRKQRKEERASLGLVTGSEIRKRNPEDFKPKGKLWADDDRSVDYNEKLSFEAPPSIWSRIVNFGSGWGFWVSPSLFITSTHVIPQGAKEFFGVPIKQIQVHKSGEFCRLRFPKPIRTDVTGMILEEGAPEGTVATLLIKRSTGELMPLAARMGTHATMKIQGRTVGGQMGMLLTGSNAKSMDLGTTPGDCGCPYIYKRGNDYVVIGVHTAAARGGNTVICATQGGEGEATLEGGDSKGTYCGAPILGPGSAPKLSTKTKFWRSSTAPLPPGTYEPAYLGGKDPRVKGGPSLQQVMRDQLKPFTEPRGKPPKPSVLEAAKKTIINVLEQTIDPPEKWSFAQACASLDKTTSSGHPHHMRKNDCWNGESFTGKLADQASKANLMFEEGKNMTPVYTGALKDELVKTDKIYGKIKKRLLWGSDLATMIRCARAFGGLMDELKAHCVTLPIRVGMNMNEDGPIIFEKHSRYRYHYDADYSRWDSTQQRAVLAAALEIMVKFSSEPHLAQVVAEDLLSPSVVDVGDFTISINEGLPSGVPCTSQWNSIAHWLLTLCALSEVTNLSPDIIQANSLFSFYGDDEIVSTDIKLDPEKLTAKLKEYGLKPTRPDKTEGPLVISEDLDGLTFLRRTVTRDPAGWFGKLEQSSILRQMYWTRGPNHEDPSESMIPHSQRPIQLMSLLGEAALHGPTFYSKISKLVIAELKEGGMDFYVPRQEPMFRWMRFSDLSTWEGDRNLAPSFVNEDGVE

Genome polyprotein (Hu/NV/NV/1968/US, UniProt Q83883), sequence (Q83883 whole entry): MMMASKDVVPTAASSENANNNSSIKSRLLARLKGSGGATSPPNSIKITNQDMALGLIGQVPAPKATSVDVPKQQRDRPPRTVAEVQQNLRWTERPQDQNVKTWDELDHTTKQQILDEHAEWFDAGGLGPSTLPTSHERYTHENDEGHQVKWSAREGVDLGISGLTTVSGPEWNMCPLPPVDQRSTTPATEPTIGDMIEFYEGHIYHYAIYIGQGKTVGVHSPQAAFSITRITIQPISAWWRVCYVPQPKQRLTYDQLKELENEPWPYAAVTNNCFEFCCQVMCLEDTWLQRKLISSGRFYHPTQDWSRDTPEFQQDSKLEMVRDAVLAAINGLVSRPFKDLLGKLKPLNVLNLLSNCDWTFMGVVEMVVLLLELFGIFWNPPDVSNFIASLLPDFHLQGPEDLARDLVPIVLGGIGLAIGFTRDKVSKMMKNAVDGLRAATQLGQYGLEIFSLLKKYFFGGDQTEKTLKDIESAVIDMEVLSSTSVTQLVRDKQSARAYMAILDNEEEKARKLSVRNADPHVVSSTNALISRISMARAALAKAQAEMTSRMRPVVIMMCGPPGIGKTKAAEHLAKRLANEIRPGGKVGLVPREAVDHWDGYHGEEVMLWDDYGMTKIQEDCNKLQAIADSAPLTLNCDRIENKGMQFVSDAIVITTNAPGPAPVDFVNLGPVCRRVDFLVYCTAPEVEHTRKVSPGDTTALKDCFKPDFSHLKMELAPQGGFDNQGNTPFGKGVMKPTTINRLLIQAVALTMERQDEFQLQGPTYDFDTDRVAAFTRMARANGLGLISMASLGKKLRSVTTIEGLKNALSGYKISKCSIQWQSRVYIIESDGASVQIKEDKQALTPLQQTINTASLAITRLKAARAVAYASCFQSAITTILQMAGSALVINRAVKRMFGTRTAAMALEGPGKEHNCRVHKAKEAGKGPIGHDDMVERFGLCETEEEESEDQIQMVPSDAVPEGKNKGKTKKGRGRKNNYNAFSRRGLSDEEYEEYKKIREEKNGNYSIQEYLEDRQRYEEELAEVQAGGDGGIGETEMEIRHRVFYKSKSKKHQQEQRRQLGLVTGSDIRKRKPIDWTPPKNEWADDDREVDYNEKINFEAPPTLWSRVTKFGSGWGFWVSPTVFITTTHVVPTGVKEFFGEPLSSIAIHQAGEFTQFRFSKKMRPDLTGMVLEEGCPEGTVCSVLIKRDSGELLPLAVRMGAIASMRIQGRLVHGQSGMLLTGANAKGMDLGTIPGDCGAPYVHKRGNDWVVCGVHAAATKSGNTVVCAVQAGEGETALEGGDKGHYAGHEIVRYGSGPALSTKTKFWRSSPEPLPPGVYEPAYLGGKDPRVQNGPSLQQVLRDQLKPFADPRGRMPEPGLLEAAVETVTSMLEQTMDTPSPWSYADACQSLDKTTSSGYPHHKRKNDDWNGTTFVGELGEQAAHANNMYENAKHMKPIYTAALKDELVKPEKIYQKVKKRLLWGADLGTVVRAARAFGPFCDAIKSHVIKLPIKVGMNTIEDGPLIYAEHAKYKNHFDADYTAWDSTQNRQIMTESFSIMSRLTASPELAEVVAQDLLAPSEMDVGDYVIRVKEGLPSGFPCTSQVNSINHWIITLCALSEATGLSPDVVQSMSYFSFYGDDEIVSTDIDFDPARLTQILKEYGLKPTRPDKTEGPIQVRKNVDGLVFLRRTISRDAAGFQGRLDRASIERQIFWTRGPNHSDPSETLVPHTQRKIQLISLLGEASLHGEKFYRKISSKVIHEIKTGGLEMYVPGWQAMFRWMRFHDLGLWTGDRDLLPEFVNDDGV

Usually IC50 stands for the midpoint of a concentration-inhibition curve. Low readings indicate higher potency, high ones lower potency. A word on the Ki: it is a measure of affinity in units of concentration, obtained from inhibition or displacement. Read a high Ki as weaker binding. With `CC(C)C[C@H](NC(=O)[C@H](Cc1cccc2ccccc12)NC(=O)c1cnccn1)C(=O)N[C@H](C=O)C[C@@H]1CCNC1=O` [US11859014, Compound 29], the IC50 against Genome polyprotein [1] worked out at 112 nM. For the same compound, the Ki is 350 nM at Genome polyprotein [1] and 670 nM on Genome polyprotein [2].

With `CC(C)C[C@H](NC(=O)[C@H](Cc1cccc2ccccc12)NC(=O)c1cnccn1)C(=O)N[C@H](C=O)C[C@@H]1CCCNC1=O` [US11859014, Compound 23], at Genome polyprotein [1], inhibition was half-maximal at 96 nM (IC50) and the Ki was found to be 528 nM. For the same compound, the IC50 against Genome polyprotein [2] came out at 204 nM.

For `O=C[C@H](C[C@@H]1CCCNC1=O)NC(=O)[C@H](Cc1ccccc1)NC(=O)[C@H](Cc1cccc2ccccc12)NC(=O)OCc1ccccc1` [US11859014, Compound 83], the IC50 at Genome polyprotein [2] amounted to 482 nM.

For the compound `CC(C)C[C@H](NC(=O)[C@H](Cc1cccc2ccccc12)NC(=O)OCc1ccccc1)C(=O)N[C@H](C=O)C[C@@H]1CCCNC1=O` [US11859014, Compound 19], at Genome polyprotein [1], it took 80 nM to reach half-maximal inhibition (IC50) and the Ki was found to be 155 nM. Moreover, on Genome polyprotein [2], the Ki was determined as 1190 nM.

On Genome polyprotein [2], `CCOC(=O)/C=C/[C@H](C[C@@H]1CCNC1=O)NC(=O)[C@@H](CC(=O)[C@@H](NC(=O)c1cc(C)on1)C(C)C)Cc1ccc(F)cc1` [US11859014, Compound rupintrivir] had an IC50 of 23600 nM and a Ki of 8200 nM.

As to `CC(C)C[C@H](NC(=O)[C@H](Cc1ccc(O)cc1)NC(=O)OCc1ccccc1)C(=O)N[C@H](C=O)C[C@@H]1CCCNC1=O` [US11859014, Compound 11], at Genome polyprotein [1], it took 44 nM to reach half-maximal inhibition (IC50) and affinity was put at a Ki of 123 nM. The same compound showed a Ki at Genome polyprotein [2] of 427 nM.

On Genome polyprotein [2], `CC(C)C[C@H](NC(=O)[C@H](Cc1cccc2ccccc12)NC(=O)OCc1ccccc1)C(=O)N[C@H](/C=C(\C#N)C(N)=O)C[C@@H]1CCCNC1=O` [US11859014, Compound 36] gave a Ki of 3600 nM.

In the case of `CC(C)C[C@H](NC(=O)[C@H](Cc1ccc(F)cc1)NC(=O)OCc1ccccc1)C(=O)N[C@H](C=O)C[C@@H]1CCCNC1=O` [US11859014, Compound 35], at Genome polyprotein [2], the 50% inhibitory concentration (IC50) stood at 167 nM and the affinity corresponds to a Ki of 858 nM.
